Measurements reported in ChEMBL document CHEMBL5046281, “N-Aryl Mercaptopropionamides as Broad-Spectrum Inhibitors of Metallo-β-Lactamases” (J Med Chem, 2022).
Calls of active or inactive are those of the source. No cut-off for these calls is given here.

Tests used:
[1] = Inhibition of Escherichia coli NDM-1 using fluorocillin as substrate incubated for 30 mins by fluorescence based assay
BlaVIM-1 = BlaVIM-1 (Escherichia coli, UniProt Q8GDC1); experiment: Inhibition of Escherichia coli VIM-1 using fluorocillin as substrate incubated for 30 mins by fluorescence based assay
[2] = Lipophilicity, log D of the compound at pH 7.4 by HPLC-MS analysis; type: physicochemical; settings: buffer
[3] = target: T1, Interstitial collagenase (Homo sapiens) (UniProt P03956); experiment: Inhibition of human MMP-1 at 100 uM relative to control
T1 sequence (whole entry): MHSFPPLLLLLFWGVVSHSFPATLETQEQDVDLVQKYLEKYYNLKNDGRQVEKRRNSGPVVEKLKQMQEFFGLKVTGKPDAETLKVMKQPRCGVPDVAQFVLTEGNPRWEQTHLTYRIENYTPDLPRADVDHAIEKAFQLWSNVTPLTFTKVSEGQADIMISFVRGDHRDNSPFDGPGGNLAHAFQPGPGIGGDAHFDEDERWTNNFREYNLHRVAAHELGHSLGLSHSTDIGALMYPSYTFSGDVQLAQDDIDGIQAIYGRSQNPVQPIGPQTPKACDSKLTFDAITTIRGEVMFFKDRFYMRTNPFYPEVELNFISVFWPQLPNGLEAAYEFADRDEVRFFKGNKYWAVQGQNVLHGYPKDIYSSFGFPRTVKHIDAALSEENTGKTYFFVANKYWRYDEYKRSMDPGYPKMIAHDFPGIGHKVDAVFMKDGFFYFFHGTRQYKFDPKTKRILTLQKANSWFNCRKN

[4] = target: 72 kDa type IV collagenase (Homo sapiens, UniProt P08253); experiment: Inhibition of human MMP-2 at 100 uM relative to control
Chain of 72 kDa type IV collagenase (P08253 110-660 limits assumed): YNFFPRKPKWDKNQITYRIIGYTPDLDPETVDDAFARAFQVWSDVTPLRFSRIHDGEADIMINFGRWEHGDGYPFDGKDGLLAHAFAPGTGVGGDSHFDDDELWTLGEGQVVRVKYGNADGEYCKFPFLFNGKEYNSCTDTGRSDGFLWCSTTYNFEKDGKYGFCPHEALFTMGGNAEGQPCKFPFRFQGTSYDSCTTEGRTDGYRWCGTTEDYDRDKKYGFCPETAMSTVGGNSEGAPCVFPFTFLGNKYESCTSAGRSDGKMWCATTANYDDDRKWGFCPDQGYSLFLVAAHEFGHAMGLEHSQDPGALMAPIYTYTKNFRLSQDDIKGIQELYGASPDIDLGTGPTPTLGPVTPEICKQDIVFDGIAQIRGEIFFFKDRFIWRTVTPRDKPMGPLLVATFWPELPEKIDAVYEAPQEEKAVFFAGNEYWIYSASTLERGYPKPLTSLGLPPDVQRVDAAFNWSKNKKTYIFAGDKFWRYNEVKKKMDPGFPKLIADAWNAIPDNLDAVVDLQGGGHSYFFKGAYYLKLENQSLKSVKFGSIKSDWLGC

[5] = target: Stromelysin-1 (Homo sapiens) (UniProt P08254); experiment: Inhibition of human MMP-3 at 100 uM relative to control
Chain of Stromelysin-1 (Homo sapiens) (P08254 100-477 limits assumed): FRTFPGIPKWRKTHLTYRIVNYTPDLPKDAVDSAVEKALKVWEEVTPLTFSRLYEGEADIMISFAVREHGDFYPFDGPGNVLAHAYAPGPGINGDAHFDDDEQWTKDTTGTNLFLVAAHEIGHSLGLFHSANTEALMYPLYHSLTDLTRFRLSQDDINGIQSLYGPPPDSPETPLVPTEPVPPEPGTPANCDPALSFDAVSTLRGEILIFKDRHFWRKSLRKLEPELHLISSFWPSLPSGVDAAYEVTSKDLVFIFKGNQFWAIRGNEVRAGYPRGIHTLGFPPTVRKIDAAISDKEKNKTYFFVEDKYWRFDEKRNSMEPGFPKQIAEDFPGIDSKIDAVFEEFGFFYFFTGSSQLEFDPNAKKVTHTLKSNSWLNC

[6] = target: Matrix metalloproteinase-14 (Homo sapiens, UniProt P50281); experiment: Inhibition of human MMP-14
Escherichia coli [7] = experiment: Antibacterial activity against NDM-1 expressing Escherichia coli isolates assessed as inhibition of bacterial growth by microdilution method; type: functional, organism-based
Escherichia coli [8] = experiment: Antibacterial activity against IMP-1 expressing Escherichia coli isolates assessed as inhibition of bacterial growth by microdilution method; type: functional, organism-based
Pseudomonas aeruginosa [9] = experiment: Antibacterial activity against VIM-2 expressing Pseudomonas aeruginosa isolates assessed as inhibition of bacterial growth by microdilution method; type: functional, organism-based
Escherichia coli [10] = experiment: Potentiation of imipenem-induced antibacterial activity against NDM-1 producing Escherichia coli assessed as imipenem MIC at 2 ug/ml by microdilution method (reference value: 128 ug/ml); type: functional; settings: dose 2 µg/ml
Escherichia coli [11] = experiment: Potentiation of imipenem-induced antibacterial activity against NDM-5 producing Escherichia coli T2351 clinical isolates assessed as imipenem MIC at 128 mg/l by microdilution method; type: functional
Pseudomonas aeruginosa [12] = experiment: Potentiation of imipenem-induced antibacterial activity against VIM-1 producing Pseudomonas aeruginosa T2357 clinical isolates assessed as imipenem MIC at 128 mg/l by microdilution method; type: functional
Acinetobacter baumannii = experiment: Potentiation of imipenem-induced antibacterial activity against OXA-23 producing Acinetobacter baumannii T2434 clinical isolates assessed as imipenem MIC at 128 mg/l by microdilution method; type: functional
Escherichia coli [13] = experiment: Potentiation of imipenem-induced antibacterial activity against KPC-2 producing Escherichia coli T2435 clinical isolates assessed as imipenem MIC at 128 mg/l by microdilution method; type: functional
[14] = (§1) Selectivity ratio of MIC for antibacterial activity against NDM-7 producing Escherichia coli T2239 clinical isolates to MIC for potentiation of imipenem-induced antibacterial activity against NDM-7 producing Escherichia coli T2239 clinical isolates assessed as imipenem MIC at 128 mg/l; type: functional
[15] = Selectivity ratio of MIC for antibacterial activity against NDM-1 producing Enterobacter cloacae T2311 clinical isolates to MIC for potentiation of imipenem-induced antibacterial activity against NDM-1 producing Enterobacter cloacae T2311 clinical isolates assessed as imipenem MIC at 128 mg/l; type: functional
[16] = Selectivity ratio of MIC for antibacterial activity against NDM-1 producing Serratia marcescens T2352 clinical isolates to MIC for potentiation of imipenem-induced antibacterial activity against NDM-1 producing Serratia marcescens T2352 clinical isolates assessed as imipenem MIC at 128 mg/l; type: functional
[17] = Selectivity ratio of MIC for antibacterial activity against NDM-5 producing Escherichia coli T2351 clinical isolates to MIC for potentiation of imipenem-induced antibacterial activity against NDM-5 producing Escherichia coli T2351 clinical isolates assessed as imipenem MIC at 128 mg/l; type: functional
[18] = Selectivity ratio of MIC for antibacterial activity against VIM-1 producing Pseudomonas aeruginosa T2357 clinical isolates to MIC for potentiation of imipenem-induced antibacterial activity against VIM-1 producing Pseudomonas aeruginosa T2357 clinical isolates assessed as imipenem MIC at 128 mg/l; type: functional
[19] = Selectivity ratio of MIC for antibacterial activity against IMP-1 producing Pseudomonas aeruginosa T2325 clinical isolates to MIC for potentiation of imipenem-induced antibacterial activity against IMP-1 producing Pseudomonas aeruginosa T2325 clinical isolates assessed as imipenem MIC at 128 mg/l; type: functional
[20] = as §1, with “OXA-23” for “NDM-7”, “Acinetobacter baumannii T2434” for “Escherichia coli T2239”; type: functional
Klebsiella pneumoniae [21] = experiment: Synergistic antibacterial activity against NDM-1-producing Klebsiella pneumoniae T2301 clinical isolate assessed as fractional inhibitory concentration index in presence of imipenem by microdilution checkerboard assay; type: functional
Klebsiella pneumoniae [22] = experiment: Antibacterial activity against imipenem-resistant NDM-1-producing Klebsiella pneumoniae T2301 at 128 mg/L measured after 24 hrs by time-kill assay; type: functional, organism-based
Klebsiella pneumoniae [23] = experiment: Antibacterial activity against imipenem-resistant NDM-1-producing Klebsiella pneumoniae T2301 at 128 mg/L measured after 24 hrs in presence of imipenem by time-kill assay; type: functional, organism-based
Escherichia coli [24] = experiment: Potentiation of imipenem-induced antibacterial activity against NDM-1 producing Escherichia coli assessed as imipenem MIC at 4 ug/ml by microdilution method (reference value: 128 ug/ml); type: functional; settings: dose 4 µg/ml
Escherichia coli [25] = experiment: Potentiation of imipenem-induced antibacterial activity against NDM-1 producing Escherichia coli assessed as imipenem MIC at 32 ug/ml by microdilution method (reference value: 128 ug/ml); type: functional; settings: dose 32 µg/ml
Escherichia coli [26] = experiment: Potentiation of imipenem-induced antibacterial activity against NDM-1 producing Escherichia coli assessed as fold change in imipenem MIC at 32 ug/ml by microdilution method; type: functional; settings: dose 32 µg/ml
Escherichia coli [27] = experiment: Potentiation of imipenem-induced antibacterial activity against NDM-1 producing Escherichia coli assessed as fold change in imipenem MIC at 64 ug/ml by microdilution method; type: functional; settings: dose 64 µg/ml

O=C(CCS)Nc1cccc(C(=O)O)c1
IC50 [1]: 4 µM | IC50 (BlaVIM-1): 1.2 µM | logD [2]: -0.96 | inhibition [3]: < 10% | inhibition [4]: < 10% | inhibition [5]: < 10% | IC50 [6]: 68 µM | Activity (Escherichia coli [7]): inactive | Activity (Escherichia coli [8]): inactive | Activity (Pseudomonas aeruginosa [9]): inactive | MIC (Escherichia coli [10]): 128 µg/mL | MIC (Escherichia coli [11]): 2 µg/mL | MIC (Pseudomonas aeruginosa [12]): 256 µg/mL | MIC (Acinetobacter baumannii): 32 µg/mL | MIC (Escherichia coli [13]): 4 µg/mL | Ratio [14]: 16 | Ratio [15]: 8 | Ratio [16]: 64 | Ratio [17]: 4 | Ratio [18]: 1 | Ratio [19]: 1 | Ratio [20]: 1 | fractional inhibitory concentration index (FICI) (Klebsiella pneumoniae [21]): 0.25 | Activity (Klebsiella pneumoniae [22]): inactive | Activity (Klebsiella pneumoniae [23]): Active | MIC (Escherichia coli [24]): 128 µg/mL | MIC (Escherichia coli [25]): 8 µg/mL | fold change (FC) (Escherichia coli [26]): 16 | fold change (FC) (Escherichia coli [27]): 64
